Patent US20240374550A1, “GINGERENONE A PRODRUGS AND METHODS OF USE” (The U.S.A., as Represented by the Secretary, Department of …, priority 2022, published 2024)
Entries after “also recorded” stand apart in the source; their conditions may differ.

Key:
[1] = system: senescent WI-38 fibroblasts; test: MTT cell viability assay, IR-induced senescent WI-38 fibroblasts; assay type: cell-based, human; details: for senolytic activity (ability to selectively decrease cell viability of senescent cells): 72 h, ginger components at 100 μM, 6-shogaol 3.6 μM, 8-shogaol 33 μM, 6-gingerol 20 μM; for senescent cell viability: D+Q (dasatinib 250 nM + quercetin 10 μM), gingerenone A 20 μM, 6-shogaol 72.4 nM
Protocol: Cell culture and treatments: WI-38 human diploid fibroblasts (HDFs) were cultured in Dulbecco's modified Eagle's medium (DMEM) supplemented with 10% heat-inactivated fetal bovine serum (FBS), penicillin and streptomycin, and non-essential amino acids at 37° C. in a 5% CO2 incubator. HDFs were rendered senescent by exposure to 10 Gy of ionizing radiation (IR) and then cultured for an additional ten days. Proliferating and senescent WI-38 cells were seeded in triplicate overnight at 2×10^5 cells/well (in 6 well plates) to achieve ˜60% confluence by the next day. Cells were then treated with the extracts for times indicated. […]
MTT cell viability: The MTT assay (Bio Vision Milpitas, CA) was carried out following the manufacturer's protocol. Briefly, the media was gently removed from each well and 50 μl of serum-free medium+50 μl of Solution A were added to each well. The plates were incubated at 37° C. for MTT reduction into formazan for 3 h. Next, 150 μl Solution B was added to each well and the plate was covered with foil and shaken at 600 rpm for 15 min. The absorbance was measured at 590 nm using Enspire, Perkin Elmer Multimode plate reader. […]
WI-38 fibroblasts were rendered senescent by exposure to ionizing radiation (IR, 10 Gy) and cultured for an additional 10 days. […] Data represent the means and standard error from three biological replicates. The major components of ginger extract, namely 6-gingerol, 8-gingerol, 10-gingerol, 6-shogaol, 8-shogaol, gingerenone A, and zingerone, were screened for their ability to selectively decrease cell viability of senescent cells using the MTT assay (FIG. 10A).

[2] = system: proliferating WI-38 fibroblasts; test: MTT cell viability assay, proliferating WI-38 fibroblasts; assay type: cell-based, human; details: 48 h; D+Q (dasatinib 250 nM + quercetin 10 μM), gingerenone A 20 μM, 6-shogaol 72.4 nM
Protocol: Cell culture and treatments: WI-38 human diploid fibroblasts (HDFs) were cultured in Dulbecco's modified Eagle's medium (DMEM) supplemented with 10% heat-inactivated fetal bovine serum (FBS), penicillin and streptomycin, and non-essential amino acids at 37° C. in a 5% CO2 incubator. HDFs were rendered senescent by exposure to 10 Gy of ionizing radiation (IR) and then cultured for an additional ten days. Proliferating and senescent WI-38 cells were seeded in triplicate overnight at 2×10^5 cells/well (in 6 well plates) to achieve ˜60% confluence by the next day. Cells were then treated with the extracts for times indicated.
In 24-well plates, cells were treated with multiple dilutions (1:200 and 1:500) of Harpagophytum procumbens (Devil's Claw) (herb to menstruum ratio, 1:3), Uncaria tomentosa (Cat's Claw) (herb to menstruum ratio, 1:3), Zingiber officinale Rosc. […]
MTT cell viability: The MTT assay (Bio Vision Milpitas, CA) was carried out following the manufacturer's protocol. […] The absorbance was measured at 590 nm using Enspire, Perkin Elmer Multimode plate reader.
Four plant extracts were screened for senolytic activity, including extracts from Harpagophytum procumbens (Devil's Claw), Uncaria tomentosa (Cat's Claw), Zingiber officinale Rosc. […] In FIG. 8B, the impact on ginger extract on proliferating and senescent cells on cell survival was assessed by the MTT cell viability assay. […]

[3] = system: SASP cytokines and chemokines secreted by senescent WI-38 fibroblasts; test: Secreted protein analysis (ELISA, Luminex multiplex, V-PLEX) of SASP factors; assay type: cell-based, human; details: 24 h
Protocol: Secreted protein analysis-ELISA, Luminex Multiplex and V-PLEX: Media was collected at the earliest timepoint (24 h after treatments) to avoid cell death that could interfere with the assay. The media was centrifuged at 1000×g for 5 min to remove debris. The secretion of IL-6 was measured by the Quantikine ELISA Kit (R&D systems) and the expression of pro-inflammatory cytokines and chemokines [IL-6, TNFα, CCL2 (MCP-1), IL-8, IFNß] was also assessed by multiplex assays (customized Luminex plate, R&D) according to the manufacturer's instructions. The V-PLEX Plus Proinflammatory Panel 1 Human Kit and the Chemokine Panel 1 preparation and detection were carried out following the manufacturer's protocol (Mesoscale Diagnostics) using >80% confluency of proliferating or senescent cells on 24-well plates. Briefly, different concentrations of standards and samples were added to the plates, and they were incubated for 2 h on a microplate shaker. The plates were washed, and the corresponding detection antibody mixture was added to each well and incubated for 1 h with shaking. The plates were washed twice then Read buffer was added to each well. The plates were read on the MESO Quickplex SQ 120 (MSD, Rockville, MD) and protein concentrations were determined using MSD Discovery workbench 4.0. The effects of gingerenone A, 6-shogaol and D+Q on cytokines and chemokines that are known to be part of the senescence-associated secretory phenotype (SASP) were tested. WI-38 fibroblasts were rendered senescent by exposure to ionizing radiation (IR, 10 Gy) and cultured for an additional 10 days. Cells were then treated with gingerenone A (20 μM) and 6-shogaol (72.4 nM) and incubated for 24 h. CCL-2 (MCP-1) and IL-10 were measured using the Bio-plex (Multiplex); IL6 was measured using Quantikine IL-6 (R&D) (FIG. 12A). Data were normalized to cell number/total protein content. Data in graphs represent the means and standard error from three biological replicates. […] Ratios of cleaved pro-caspase 3 to total caspase 3, normalized to ACTB levels, are shown as relative to control proliferating cells. Cytokines (FIG. 13A) and chemokines (FIG. 13B) were measured using the V-plex panel (MSD) after treatment for 24 h with the indicated drugs. Relative secretion was measured as pg/ml vs control normalized on TE. Data in the graphs represent the means and standard error from three biological replicates.

[4] = system: p53, Bcl-XL, cleaved caspase-3 in proliferating and senescent WI-38 fibroblasts; test: Western blot protein analysis (p53, Bcl-XL, cleaved caspase-3); assay type: cell-based, human; details: 48 h, senescent cells
Protocol: Protein analysis: Cells were lysed in RIPA lysis buffer (Pierce, ThermoFisher) containing protease and phosphatase inhibitors (Roche) and incubated on ice for 10 min. The lysates were then sonicated for 5 min and centrifuged for 10 min at 4° C. to remove the insoluble fraction. The remaining supernatant was the whole-cell lysate. Lysates were separated by SDS-polyacrylamide gel electrophoresis (SDS-PAGE) and transferred onto nitrocellulose membranes (Biorad). Incubations with primary antibodies recognizing p21, p53, Beta-Actin (ACTB) (Santa Cruz Biotechnology), as well as caspase-3 (Abcam) and Bcl-XL (Cell Signaling) were followed by incubations with the appropriate secondary antibodies conjugated with horseradish peroxidase (GE Healthcare). Signals were developed using Enhanced Chemiluminescence (ECL) and acquired by using the ChemiDoc MP Imaging System (BioRad).
The effects of gingerenone A, 6-shogaol and D+Q on cytokines and chemokines that are known to be part of the senescence-associated secretory phenotype (SASP) were tested. WI-38 fibroblasts were rendered senescent by exposure to ionizing radiation (IR, 10 Gy) and cultured for an additional 10 days. Cells were then treated with gingerenone A (20 μM) and 6-shogaol (72.4 nM) and incubated for 24 h. CCL-2 (MCP-1) and IL-10 were measured using the Bio-plex (Multiplex); IL6 was measured using Quantikine IL-6 (R&D) (FIG. 12A). Data were normalized to cell number/total protein content. Data in graphs represent the means and standard error from three biological replicates. […] Ratios of cleaved pro-caspase 3 to total caspase 3, normalized to ACTB levels, are shown as relative to control proliferating cells. Cytokines (FIG. 13A) and chemokines (FIG. 13B) were measured using the V-plex panel (MSD) after treatment for 24 h with the indicated drugs. Relative secretion was measured as pg/ml vs control normalized on TE. Data in the graphs represent the means and standard error from three biological replicates.
To determine whether gingerenone A and 6-shogaol might influence the apoptotic pathway, their effect on the levels of cleaved caspase-3 (pro-apoptotic marker), and Bcl-XL (anti-apoptotic protein) (FIG. 12B) was tested.

[5] = system: circulating cytokines/chemokines in serum; test: Chronic administration, serum cytokines/chemokines; assay type: in vivo, C57BL/6JN mice; details: GinA 10 mg/kg/day, modGinA 27 mg/kg/day, 10 weeks
Protocol: (§1) A chronic administration of GinA (10 mg/kg/day; 1.8 mg/mL) and modGinA (27 mg/kg/day, 4.8 mg/mL) or vehicle (high oleic sunflower oil) was carried out daily for 10 weeks in C57BL/6JN mice (79-80 weeks old). The serum was analyzed for circulating levels of cytokines/chemokines during treatment (9th week) and 10 days after cessation of drug administration. […] FIGS. 16A and 16B show circulating levels of IL-5 in serum during treatment (9 weeks; FIG. 16A) and after treatment (FIG. 16B) with daily oral administration of 10 mg/kg of GinA or 27 mg/kg of modGinA. IL-5 was significant in post treatment using the unadjusted Kruskal-Wallace test between the three groups (vehicle, GinA and modGinA) and unadjusted unpaired t-test between either group and vehicle and during treatment using unadjusted unpaired t-test in the modGinA treatment group.

[6] = system: circulating metabolites and lipid species in serum; test: Chronic administration, serum metabolomic and lipid analysis; assay type: in vivo, C57BL/6J male mice; details: daily oral GinA 10 mg/kg or modGinA 27 mg/kg, at 9 weeks, compared to vehicle
Protocol: as §1
Additionally, modGinA administration increased circulating levels of multiple DHA- and EPA-containing lipid species, including phospholipids and cholesterol esters during treatment.

in vivo = details: male, C57BL/6J, mouse, po, 10 mg/kg
Protocol: Gingerenone A Quantification: The analysis of Gingerenone A, EPA and DHA was accomplished using a Phenomencx® Security Guard® C18 column (4 x3 mm ID, Phenomenex, Torrance, CA) and a Waters™ Xbridge® C18 3.5 μm column (2.1 mm×100 mm, Waters Corporation, Milford, MA). The mobile phase consisted of 5 mM ammonium formate and 0.1% formic acid as component A and acetonitrile as component B. A linear gradient was run as follows: 0 min 10% B; 1 min 10% B, 5 min 90% B; 10 min 90% B; 10.1 min 10% B at a flow rate of 0.2 mL/min, with an oven temperature at 40° C. The total run time was 15 min per sample. […] For DHA, the TIS compound parameter settings (declustering potential, collision energy and cell exit potential) for MRM was −135 V, —14 V and −13 V and for naringenin MRM was −100 V, —24 V and −10 V, and MRM2 was −100V, —33 V and −10 V. The data were acquired and analyzed using Analyst version 1.4.2 (Applied Biosystems). The relative quantitation of gingerenone A, EPA and DHA was accomplished by using the area under the curves. […] For the quantitation of gingerenone A, a seven-point calibration curve (12.5 to 0.097 ng/ml) was carried out. […]
The peak areas in circulating gingerenone A levels were measured as described above in the Methods section.

CCCCC[C@H](O)CC(=O)CCc1ccc(O)c(OC)c1 [6-gingerol]
senolytic activity (ability to selectively decrease cell viability of senescent cells) [1]: only 6-shogaol and gingerenone A displayed senolytic activity

CCCCC/C=C/C(=O)CCc1ccc(O)c(OC)c1 [6-shogaol]
senescent cell viability ([1]; 48 h): moderate degree of cell death
senolytic activity (ability to selectively decrease cell viability of senescent cells) [1]: displayed senolytic activity
effect on proliferating cells [2]: significant increase
changes in any of the cytokines and chemokines measured ([3]; 72.4 nM): did not induce major changes
expression of anti-apoptotic protein Bcl-XL [4]: reduced
levels of pro-apoptotic protein cleaved caspase-3 [4]: increase

CCCCCCC[C@H](O)CC(=O)CCc1ccc(O)c(OC)c1 [8-gingerol]
senolytic activity (ability to selectively decrease cell viability of senescent cells) [1]: only 6-shogaol and gingerenone A displayed senolytic activity

CCCCCCC/C=C/C(=O)CCc1ccc(O)c(OC)c1 [8-shogaol]
senolytic activity (ability to selectively decrease cell viability of senescent cells) [1]: only 6-shogaol and gingerenone A displayed senolytic activity

CCCCCCCCC[C@H](O)CC(=O)CCc1ccc(O)c(OC)c1 [10-gingerol]
senolytic activity (ability to selectively decrease cell viability of senescent cells) [1]: only 6-shogaol and gingerenone A displayed senolytic activity

COc1cc(CC/C=C/C(=O)CCc2ccc(O)c(OC)c2)ccc1O [gingerenone A, Gingerenone A]
senescent cell viability relative to proliferating cells ([1]; 20 μM, 48 h, p=0.04): significant decrease; also recorded: significantly decreased
selectivity for senescent over proliferating cells ([1]; 48 h, 20 μM, compared to D+Q): higher selectivity
senescent cell viability ([1]; 48 h): significantly decreased
senolytic activity (ability to selectively decrease cell viability of senescent cells) [1]: displayed senolytic activity
effect on proliferating cells [2]: did not show any significant effect
level of IL-1β ([3]; 20 μM): increased
level of IL-13 ([3]; 20 μM): increased
level of IL-10 ([3]; 20 μM, multiplex ELISA (FIG. 12A)): increased
level of IL-10 ([3]; V-Plex (FIG. 13A)): unchanged
level of IL-8 ([3]; gingerenone A 20 μM, D+Q): increased
secreted level of CCL2 (MCP-1) ([3]; gingerenone A 20 μM, D+Q): reduced
secreted level of IL-6 ([3]; gingerenone A 20 μM, D+Q): reduced
secreted level of IP-10 ([3]; gingerenone A 20 μM, D+Q, V-plex): reduced
expression of anti-apoptotic protein Bcl-XL [4]: reduced
levels of pro-apoptotic protein cleaved caspase-3 [4]: increase
serum IL-5 ([5]; post treatment, unadjusted unpaired t-test vs vehicle): reduced
serum IL-2 ([5]; ten days after termination): reduced
serum concentration of beta-alanine [6]: did not increase
serum concentration of choline [6]: did not increase
AUC (in vivo): 1.25 ng·h/mL

COc1cc(CCC(C)=O)ccc1O [zingerone]
senolytic activity (ability to selectively decrease cell viability of senescent cells) [1]: only 6-shogaol and gingerenone A displayed senolytic activity
